Measured values taken from ChEMBL document CHEMBL1201862, “PubChem BioAssay data set” (2004).
Active and inactive are the calls of the source.

Columns and labels:
[1] = molecular target: T1, Alkaline phosphatase, tissue-nonspecific isozyme (Homo sapiens, UniProt P05186); assay: activation of tissue-nonspecific alkaline phosphatase – biochemical, TNAP isozyme, human IAP uHTS hits, selectivity assay for human IAP activator project, dose response (AID 488886); type: functional;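 further: potency of compounds raising TNAP activity as a selectivity check on IAP activators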
T1 sequence (P05186 whole entry): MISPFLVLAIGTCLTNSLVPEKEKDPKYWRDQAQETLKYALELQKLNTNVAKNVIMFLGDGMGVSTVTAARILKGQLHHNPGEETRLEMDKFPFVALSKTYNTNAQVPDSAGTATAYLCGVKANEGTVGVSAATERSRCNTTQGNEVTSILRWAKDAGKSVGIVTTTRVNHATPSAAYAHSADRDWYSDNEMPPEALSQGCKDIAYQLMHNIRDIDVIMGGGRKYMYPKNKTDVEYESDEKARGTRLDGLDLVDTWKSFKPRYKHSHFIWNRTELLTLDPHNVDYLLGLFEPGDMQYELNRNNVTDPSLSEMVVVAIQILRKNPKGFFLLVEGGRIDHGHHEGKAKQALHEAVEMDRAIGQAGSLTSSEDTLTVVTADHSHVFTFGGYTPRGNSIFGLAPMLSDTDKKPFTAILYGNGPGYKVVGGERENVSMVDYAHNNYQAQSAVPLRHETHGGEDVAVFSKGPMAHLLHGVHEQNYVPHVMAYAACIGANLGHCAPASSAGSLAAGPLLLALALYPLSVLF

[2] = molecular target: T2, Intestinal-type alkaline phosphatase (Homo sapiens, UniProt P09923); assay: activation of human intestinal alkaline phosphatase – biochemical, luminescent, uHTS hits, set 2, dose response (AID 488817); type: functional;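 further: potency of activators that raise enzyme activity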
[3] = molecular target: T2, Intestinal-type alkaline phosphatase; assay: human intestinal alkaline phosphatase activators, dose response, biochemical, luminescence, uHTS hits (AID 463120); type: functional
[4] = molecular target: Intestinal-type alkaline phosphatase (Mus musculus, UniProt P24822); assay: PubChem AID 488875; type: functional
[5] = molecular target: SWI/SNF-related matrix-associated actin-dependent regulator of chromatin subfamily A member 2 (Homo sapiens, UniProt P51531); assay: Luminescence-based cell-based high throughput dose response assay to identify activators of the function of SWI/SNF related, matrix associated, actin dependent regulator of chromatin, subfamily a, member 2 (SMARCA2, BRM).; type: functional
[6] = molecular target: T2, Intestinal-type alkaline phosphatase; assay: Dose Response confirmation of uHTS hits from a small molecule inhibitors of human intestinal alkaline phosphatase via a luminescent assay. [Related pubchem assays (depositor defined):AID2544, AID2574]; type: functional
[7] = Counterscreen for activators of the function of SWI/SNF related, matrix associated, actin dependent regulator of chromatin, subfamily a, member 2 (SMARCA2, BRM): Luminescence-based cell-based high throughput dose response assay to identify non-selective compounds using the VP16 reporter assay.; type: functional
[8] = molecular target: T3, Fructose-bisphosphate aldolase (Mycobacterium tuberculosis, UniProt P9WQA3); assay: Fluorescence-based biochemical high throughput dose response assay for inhibitors of the fructose-bisphosphate aldolase (FBA) of M. tuberculosis.; type: functional
T3 sequence (P9WQA3 whole entry): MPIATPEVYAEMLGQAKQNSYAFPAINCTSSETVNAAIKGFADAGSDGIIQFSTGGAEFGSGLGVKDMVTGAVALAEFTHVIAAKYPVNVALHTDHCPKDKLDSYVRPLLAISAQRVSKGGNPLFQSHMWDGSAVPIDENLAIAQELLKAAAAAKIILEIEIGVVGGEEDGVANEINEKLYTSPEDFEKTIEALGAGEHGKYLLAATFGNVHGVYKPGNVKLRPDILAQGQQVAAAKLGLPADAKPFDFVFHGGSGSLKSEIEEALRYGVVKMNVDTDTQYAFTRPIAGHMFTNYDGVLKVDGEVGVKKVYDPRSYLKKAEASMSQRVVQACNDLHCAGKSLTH

HEK293 [9] = assay: cells; type: functional, cell-based; settings: Homo sapiens
HEK293 [10] = assay: cells; type: functional, cell-based; settings: Homo sapiens; remark: listed apart in the source
[11] = luciferase reporter signal suppression in cells – H4 neuroglioma cells, luminescence, dose response (AID 1990); type: functional, cell-based
HEK293 [12] = assay: NOD2 signaling inhibitors in MDP-stimulated cells, cell-based, uHTS, luminescence (AID 2001); type: functional; settings: Homo sapiens
HEK293 [13] = assay: cells; type: functional, cell-based; settings: Homo sapiens; remark: listed apart in the source
[14] = alpha-synuclein stem-loop luciferase translation blockers – H4 neuroglioma cells, luminescence, confirmation (AID 1988); type: functional, cell-based
[15] = molecular target: Nucleotide-binding oligomerization domain-containing protein 2 (Homo sapiens, UniProt Q9HC29); assay: inhibition of NOD2-driven NF-kB reporter – cell-based, luminescence, uHTS, HEK293 (AID 1566); type: functional
HEK293 [16] = assay: inhibition of NOD1-driven NF-kB reporter – cell-based, luminescence, uHTS, primary screen (AID 1578); type: functional; settings: Homo sapiens
[17] = Luminescence Cell-Based Dose Response HTS to Identify Inhibitors of 5'UTR Stem-Loop Driven Prion Protein mRNA Translation in H4 Neuroglioblastoma Cells. [Related pubchem assays: 1827 (Project Summary), 1813 (Primary HTS)]; type: functional
[18] = molecular target: DNA dC->dU-editing enzyme APOBEC-3G (Homo sapiens, UniProt Q9HC16); type: functional;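 further: Dose-response counterscreen measuring inhibition of APOBEC3G DNA deaminase activity, run while confirming APOBEC3A inhibitors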
[19] = molecular target: DNA dC->dU-editing enzyme APOBEC-3A (Homo sapiens, UniProt P31941); assay: Dose Response confirmation of small molecule APOBEC3A DNA Deaminase Inhibitors via a fluorescence-based single-stranded DNA deaminase assay. [Related pubchem assays (depositor defined):AID493011, AID493024]; type: functional
DNA dC->dU-editing enzyme APOBEC-3A, sequence (P31941 whole entry): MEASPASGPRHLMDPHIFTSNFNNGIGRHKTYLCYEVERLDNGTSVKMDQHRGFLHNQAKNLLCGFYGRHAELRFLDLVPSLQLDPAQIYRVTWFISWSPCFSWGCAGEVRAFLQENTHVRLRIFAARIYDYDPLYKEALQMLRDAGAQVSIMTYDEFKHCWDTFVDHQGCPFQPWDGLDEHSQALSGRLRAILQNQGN

T2 sequence (P09923 whole entry): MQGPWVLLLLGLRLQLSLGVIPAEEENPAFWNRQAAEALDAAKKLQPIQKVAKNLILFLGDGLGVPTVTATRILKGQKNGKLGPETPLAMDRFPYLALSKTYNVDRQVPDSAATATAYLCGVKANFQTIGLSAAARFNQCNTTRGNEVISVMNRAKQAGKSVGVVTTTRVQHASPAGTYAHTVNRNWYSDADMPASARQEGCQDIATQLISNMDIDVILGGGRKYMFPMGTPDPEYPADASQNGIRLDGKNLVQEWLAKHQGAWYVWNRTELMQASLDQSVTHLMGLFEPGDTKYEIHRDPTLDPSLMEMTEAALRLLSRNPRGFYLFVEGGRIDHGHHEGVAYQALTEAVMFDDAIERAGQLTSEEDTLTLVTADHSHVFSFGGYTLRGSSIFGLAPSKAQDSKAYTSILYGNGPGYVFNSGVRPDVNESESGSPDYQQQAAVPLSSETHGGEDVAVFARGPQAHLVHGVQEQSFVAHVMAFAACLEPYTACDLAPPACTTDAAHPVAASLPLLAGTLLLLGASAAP
SWI/SNF-related matrix-associated actin-dependent regulator of chromatin subfamily A member 2, sequence (P51531 whole entry): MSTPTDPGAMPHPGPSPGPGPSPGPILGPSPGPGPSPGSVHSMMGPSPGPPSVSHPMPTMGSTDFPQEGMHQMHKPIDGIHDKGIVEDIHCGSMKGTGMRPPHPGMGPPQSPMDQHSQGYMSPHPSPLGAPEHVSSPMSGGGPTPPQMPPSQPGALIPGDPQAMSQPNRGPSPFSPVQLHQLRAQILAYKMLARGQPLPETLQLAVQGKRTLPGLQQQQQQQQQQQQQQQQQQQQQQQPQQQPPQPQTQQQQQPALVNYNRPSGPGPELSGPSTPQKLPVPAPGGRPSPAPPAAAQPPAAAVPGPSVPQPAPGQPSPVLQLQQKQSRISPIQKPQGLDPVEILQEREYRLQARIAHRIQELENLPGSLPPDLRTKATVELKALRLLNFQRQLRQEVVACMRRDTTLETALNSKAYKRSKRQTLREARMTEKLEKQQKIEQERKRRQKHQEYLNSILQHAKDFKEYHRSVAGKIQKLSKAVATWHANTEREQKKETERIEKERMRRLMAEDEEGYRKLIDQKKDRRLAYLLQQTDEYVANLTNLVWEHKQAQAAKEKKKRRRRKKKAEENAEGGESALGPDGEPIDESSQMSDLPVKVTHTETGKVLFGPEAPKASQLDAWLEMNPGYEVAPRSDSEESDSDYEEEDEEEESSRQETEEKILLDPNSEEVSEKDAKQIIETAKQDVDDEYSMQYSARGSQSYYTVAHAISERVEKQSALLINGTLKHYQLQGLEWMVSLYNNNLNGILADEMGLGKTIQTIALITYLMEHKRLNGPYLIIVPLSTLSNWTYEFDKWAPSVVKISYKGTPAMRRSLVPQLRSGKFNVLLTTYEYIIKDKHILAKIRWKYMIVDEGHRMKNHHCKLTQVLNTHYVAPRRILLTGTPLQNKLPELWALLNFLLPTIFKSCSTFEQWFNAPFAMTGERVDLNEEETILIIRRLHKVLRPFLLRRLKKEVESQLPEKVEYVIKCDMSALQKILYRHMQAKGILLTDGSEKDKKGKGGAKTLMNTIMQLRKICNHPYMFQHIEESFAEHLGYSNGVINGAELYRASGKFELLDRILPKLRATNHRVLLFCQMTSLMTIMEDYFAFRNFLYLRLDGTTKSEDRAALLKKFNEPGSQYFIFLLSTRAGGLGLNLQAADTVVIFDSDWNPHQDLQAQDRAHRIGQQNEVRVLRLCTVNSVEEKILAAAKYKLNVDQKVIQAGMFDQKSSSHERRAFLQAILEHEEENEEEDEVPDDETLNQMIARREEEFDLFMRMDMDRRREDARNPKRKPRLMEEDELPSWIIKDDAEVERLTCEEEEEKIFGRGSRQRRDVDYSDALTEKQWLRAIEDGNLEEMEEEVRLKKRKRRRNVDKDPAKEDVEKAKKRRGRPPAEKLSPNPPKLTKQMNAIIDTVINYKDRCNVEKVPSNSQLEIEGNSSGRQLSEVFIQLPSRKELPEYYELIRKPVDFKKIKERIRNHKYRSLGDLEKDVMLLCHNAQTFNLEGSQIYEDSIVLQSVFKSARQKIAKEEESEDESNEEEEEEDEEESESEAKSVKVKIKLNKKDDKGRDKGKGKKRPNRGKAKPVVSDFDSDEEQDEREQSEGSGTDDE
Nucleotide-binding oligomerization domain-containing protein 2, sequence (Q9HC29 whole entry, the tested form may be a part): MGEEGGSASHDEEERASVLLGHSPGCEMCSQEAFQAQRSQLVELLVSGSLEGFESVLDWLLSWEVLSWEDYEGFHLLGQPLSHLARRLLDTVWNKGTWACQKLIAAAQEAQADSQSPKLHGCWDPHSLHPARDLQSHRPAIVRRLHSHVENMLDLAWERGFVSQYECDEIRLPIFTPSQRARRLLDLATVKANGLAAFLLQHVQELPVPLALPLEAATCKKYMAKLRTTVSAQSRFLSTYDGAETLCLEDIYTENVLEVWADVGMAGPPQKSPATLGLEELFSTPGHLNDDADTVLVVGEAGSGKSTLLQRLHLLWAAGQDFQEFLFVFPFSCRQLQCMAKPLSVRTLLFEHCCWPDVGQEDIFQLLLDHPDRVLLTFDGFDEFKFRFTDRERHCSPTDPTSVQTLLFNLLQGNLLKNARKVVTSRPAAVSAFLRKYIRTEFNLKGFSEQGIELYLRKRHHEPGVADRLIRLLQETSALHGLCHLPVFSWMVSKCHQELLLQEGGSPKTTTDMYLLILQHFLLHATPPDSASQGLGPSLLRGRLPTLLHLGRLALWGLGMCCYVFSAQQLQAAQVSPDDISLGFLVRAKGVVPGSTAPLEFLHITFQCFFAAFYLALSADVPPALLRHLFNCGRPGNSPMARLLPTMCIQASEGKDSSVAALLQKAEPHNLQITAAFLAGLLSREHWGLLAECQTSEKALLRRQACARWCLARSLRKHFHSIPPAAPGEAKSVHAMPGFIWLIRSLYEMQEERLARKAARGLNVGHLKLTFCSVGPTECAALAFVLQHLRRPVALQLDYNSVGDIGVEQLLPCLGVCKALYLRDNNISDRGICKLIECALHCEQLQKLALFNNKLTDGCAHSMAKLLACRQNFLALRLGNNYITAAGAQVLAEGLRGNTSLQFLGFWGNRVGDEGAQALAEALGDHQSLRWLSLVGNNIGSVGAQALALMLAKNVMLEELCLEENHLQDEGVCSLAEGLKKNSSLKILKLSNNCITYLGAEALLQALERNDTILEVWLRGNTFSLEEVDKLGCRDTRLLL
DNA dC->dU-editing enzyme APOBEC-3G, sequence (Q9HC16 whole entry): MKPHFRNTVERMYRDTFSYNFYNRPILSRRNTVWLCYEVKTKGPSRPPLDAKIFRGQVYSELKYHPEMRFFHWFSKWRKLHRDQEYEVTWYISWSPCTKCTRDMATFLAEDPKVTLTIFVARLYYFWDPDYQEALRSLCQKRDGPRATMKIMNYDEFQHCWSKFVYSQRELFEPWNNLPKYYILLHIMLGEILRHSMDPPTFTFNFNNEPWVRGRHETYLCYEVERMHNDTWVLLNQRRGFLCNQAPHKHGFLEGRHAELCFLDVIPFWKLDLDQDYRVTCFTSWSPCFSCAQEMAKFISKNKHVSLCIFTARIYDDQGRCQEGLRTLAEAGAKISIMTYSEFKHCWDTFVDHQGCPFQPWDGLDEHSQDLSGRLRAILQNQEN
Intestinal-type alkaline phosphatase (Mus musculus, UniProt P24822), sequence (P24822 whole entry): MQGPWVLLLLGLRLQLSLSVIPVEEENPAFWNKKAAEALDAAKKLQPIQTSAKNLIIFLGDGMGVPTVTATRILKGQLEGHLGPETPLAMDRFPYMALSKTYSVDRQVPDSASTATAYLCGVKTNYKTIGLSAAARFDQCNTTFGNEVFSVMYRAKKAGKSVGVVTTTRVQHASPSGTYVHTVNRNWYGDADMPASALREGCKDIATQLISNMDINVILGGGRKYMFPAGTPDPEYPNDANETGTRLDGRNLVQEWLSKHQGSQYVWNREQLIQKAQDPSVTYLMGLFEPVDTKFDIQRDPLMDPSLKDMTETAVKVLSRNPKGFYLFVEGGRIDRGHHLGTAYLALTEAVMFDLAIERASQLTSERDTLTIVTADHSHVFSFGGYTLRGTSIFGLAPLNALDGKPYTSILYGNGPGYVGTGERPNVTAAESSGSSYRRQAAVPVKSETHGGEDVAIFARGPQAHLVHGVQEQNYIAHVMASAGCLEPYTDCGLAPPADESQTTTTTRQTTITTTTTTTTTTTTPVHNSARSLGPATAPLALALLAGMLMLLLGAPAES

## Cc1cc(C(=O)NC2CC(C)(C)Cc3c2cnn3-c2ccccc2)[nH]n1 (centres undefined)
[1]
  EC50: 48.2 µM (active)
[2]
  EC50: 45.5 µM (active)
[3]
  EC50: 70.7 µM (active)
[4]
  EC50: 55.1 µM (active)

## Cc1cccn2c(=O)c3cc(C(=O)NC4CCCC4)c(=N)n(C4CCCCC4)c3nc12
[5]
  EC50: > 91.2 µM (inactive)
[6]
  IC50: > 100 µM (inactive)
[7]
  EC50: > 91.2 µM (inactive)
[8]
  IC50: 469 nM (active)

## CCCCCCCn1ccc(=N)cc1
HEK293 [9]
  IC50: 5.72 µM (active)
HEK293 [10]
  IC50: 18.1 µM (active)
[11]
  EC50: 13 µM (active)
HEK293 [12]
  IC50: 6.34 µM (active)
HEK293 [13]
  IC50: > 20 µM (inactive)
[14]
  EC50: 14.8 µM (active)
[15]
  EC50: 8.15 µM (active)
HEK293 [16]
  EC50: 6.12 µM (active)
[17]
  EC50: > 120 µM (not active)
[18]
  IC50: 2.51 µM (active)
[19]
  IC50: 1.83 µM (active)
